Measurements reported in patent US8802597B2, “Herbicidal pyrimidines” (E I du Pont de Nemours and Company, priority 2003, dated 2014).

Experiments:
Test in all cases: Test A pre/postemergence
Assay type in all cases: in vivo
[1] = tested on: barnyardgrass (Echinochloa crus-galli)
Summary of the method: (§1)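 Pre/post greenhouse screen; loam/sand soil; solvent + surfactant formulation; pre = directed soil spray at planting, post = 1–2 leaf plants, 2–10 cm; ~10 d; visual 0–100 rating vs untreated.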

[2] = tested on: crabgrass (Digitaria sanguinalis)
Summary of the method: as §1

[3] = tested on: giant foxtail (Setaria faberi)
Summary of the method: as §1

[4] = tested on: morningglory (Ipomoea spp.)
Summary of the method: as §1

[5] = tested on: redroot pigweed (Amaranthus retroflexus)
Summary of the method: as §1

[6] = tested on: velvetleaf (Abutilon theophrasti)
Summary of the method: as §1

[7] = Postemergence, 500 g ai/ha, 0 to 100 scale (0 no effect, 100 complete control)
[8] = Postemergence, 2000 g ai/ha, 0 to 100 scale (0 no effect, 100 complete control)
[9] = Preemergence, 500 g ai/ha, 0 to 100 scale where 0 is no effect and 100 is complete control, approximately ten days
[10] = Preemergence, 2000 g ai/ha, 0 to 100 scale (0 no effect, 100 complete control)
[11] = Postemergence, 125 g ai/ha, 0 to 100 scale (0 no effect, 100 complete control)
[12] = Preemergence, 125 g ai/ha, 0 to 100 scale where 0 is no effect and 100 is complete control, approximately ten days

| Structure (SMILES) | Plant response rating, Barnyardgrass [1, 7] | Plant response rating, Barnyardgrass [1, 9] | Plant response rating, Crabgrass [2, 7] | Plant response rating, Crabgrass [2, 9] | Plant response rating, Foxtail, Giant [3, 7] | Plant response rating, Foxtail, Giant [3, 9] | Plant response rating, Morningglory [4, 7] | Plant response rating, Morningglory [4, 9] | Plant response rating, Pigweed [5, 7] | Plant response rating, Pigweed [5, 9] | Plant response rating, Velvetleaf [6, 7] | Plant response rating, Velvetleaf [6, 9] | Plant response rating, Barnyardgrass [1, 11] | Plant response rating, Barnyardgrass [1, 12] | Plant response rating, Crabgrass [2, 11] | Plant response rating, Crabgrass [2, 12] | Plant response rating, Foxtail, Giant [3, 11] | Plant response rating, Foxtail, Giant [3, 12] | Plant response rating, Morningglory [4, 11] | Plant response rating, Morningglory [4, 12] | other results |
| --- | --- | --- | --- | --- | --- | --- | --- | --- | --- | --- | --- | --- | --- | --- | --- | --- | --- | --- | --- | --- | --- |
| CCOC(=O)C(O)c1nc(C2CC2)nc(N)c1Br (stereo not drawn) [Compound 57] | 25 | 25 | 10 | 10 | 60 | 10 | 70 | 100 | 75 | 90 | 50 | 80 | – | – | – | – | – | – | – | – | Plant response rating, Barnyardgrass [1, 8]: 75; Plant response rating, Barnyardgrass [1, 10]: 80; Plant response rating, Crabgrass [2, 8]: 30; Plant response rating, Crabgrass [2, 10]: 70; Plant response rating, Foxtail, Giant [3, 8]: 80; Plant response rating, Foxtail, Giant [3, 10]: 70; Plant response rating, Morningglory [4, 8]: 80; Plant response rating, Morningglory [4, 10]: 100; Plant response rating, Pigweed [5, 8]: 95; Plant response rating, Pigweed [5, 10]: 100; Plant response rating, Velvetleaf [6, 8]: 80; Plant response rating, Velvetleaf [6, 10]: 95 |
| COC(=O)c1nc(-c2cccc(C)c2)nc(N)c1Cl [Compound 97] | 10 | 0 | 0 | 25 | 0 | 5 | 50 | 0 | 30 | 70 | 70 | 50 | 30 | 0 | 0 | 15 | 0 | 5 | 45 | 0 | Plant response rating, Pigweed [5, 11]: 10; Plant response rating, Pigweed [5, 12]: 25; Plant response rating, Velvetleaf [6, 11]: 60; Plant response rating, Velvetleaf [6, 12]: 45 |
| Nc1nc(-c2ccc(F)cc2)nc(C(=O)O)c1Br [Compound 93] | 0 | 30 | 0 | 45 | 0 | 35 | 55 | 5 | 70 | 90 | 80 | 85 | 0 | 5 | 0 | 25 | 0 | 5 | 40 | 0 | Plant response rating, Pigweed [5, 11]: 45; Plant response rating, Pigweed [5, 12]: 80; Plant response rating, Velvetleaf [6, 11]: 65; Plant response rating, Velvetleaf [6, 12]: 55 |
| NC(=O)c1nc(-c2ccc(Br)cc2)nc(N)c1Br [Compound 130] | 0 | 0 | 0 | 0 | 0 | 0 | 0 | 0 | 15 | 0 | 30 | 0 | 0 | 0 | 0 | 0 | 0 | 0 | 0 | 0 | Plant response rating, Pigweed [5, 11]: 0; Plant response rating, Pigweed [5, 12]: 0; Plant response rating, Velvetleaf [6, 11]: 0; Plant response rating, Velvetleaf [6, 12]: 0 |
| COC(=O)COc1nc(-c2ccc(Cl)cc2)nc(N)c1Cl [Compound 119] | 5 | 10 | 0 | 0 | 0 | 0 | 35 | 0 | 45 | 0 | 10 | 0 | 0 | 0 | 0 | 0 | 0 | 0 | 40 | 0 | Plant response rating, Pigweed [5, 11]: 25; Plant response rating, Pigweed [5, 12]: 0; Plant response rating, Velvetleaf [6, 11]: 0; Plant response rating, Velvetleaf [6, 12]: 0 |
| Nc1nc(-c2ccc(F)cc2)nc(C(=O)O)c1Cl [Compound 90] | 10 | 35 | 20 | 50 | 30 | 15 | 65 | 25 | 90 | 80 | 85 | 45 | 0 | 0 | 0 | 10 | 0 | 0 | 20 | 0 | Plant response rating, Pigweed [5, 11]: 35; Plant response rating, Pigweed [5, 12]: 70; Plant response rating, Velvetleaf [6, 11]: 65; Plant response rating, Velvetleaf [6, 12]: 10 |
| CCOC(=O)COc1nc(C2CC2)nc(N)c1Cl [Compound 115] | 0 | 20 | 0 | 10 | 0 | 0 | 60 | 35 | 45 | 40 | 40 | 10 | 0 | 0 | 0 | 0 | 0 | 0 | 35 | 25 | Plant response rating, Pigweed [5, 11]: 10; Plant response rating, Pigweed [5, 12]: 30; Plant response rating, Velvetleaf [6, 11]: 30; Plant response rating, Velvetleaf [6, 12]: 5 |
| Nc1nc(C2CC2)nc(C(=O)OCCCO)c1Cl [Compound 143] | 75 | 85 | 60 | 95 | 80 | 75 | 90 | 100 | 90 | 95 | 95 | 95 | 55 | 65 | 5 | 70 | 25 | 35 | 90 | 90 | Plant response rating, Pigweed [5, 11]: 70; Plant response rating, Pigweed [5, 12]: 65; Plant response rating, Velvetleaf [6, 11]: 75; Plant response rating, Velvetleaf [6, 12]: 90 |
